According to US8592403B2, “Diazepine and diazocane compounds as MC4 agonists” (Pfizer Limited, priority 2008, dated 2013):

Columns and labels:
[1] = In vitro metabolism rate determination, human liver microsome (HLM) assay; assay type: in vitro ADME; details: human, liver microsomes, read-out: HLM: Clint, app
Description: In Vitro Metabolism Rate Determination (Human Liver Microsome (HLM); Rat Liver Microsome (RLM) Assay)
Many drugs are metabolised by the cytochrome P450 mono-oxygenase system. This enzyme is found in high concentrations in the liver and is bound to the endoplasmic reticulum of the hepatocyte. The enzyme system can be obtained in semi-purified state by the preparation of the hepatic microsomal fractions. Determining a compound's in vitro half-life in such a system provides a useful indicator of metabolic stability.
Methodology for In Vitro Rate Determination Using Hepatic & Supermix Microsomes
The method outlined below is for a total incubation volume of 1.5 ml.
1. The following mixture is prepared in a test tube:
2. Defrost microsomes at room temperature and add sufficient microsomes to give a final concentration of 0.5 nmol cytochrome P450/ml of incubation e.g. for a 1.5 ml incubation, the volume of microsomes to be added is:
3. Add sufficient MilliQ water to give a total incubation volume of 1.425 ml.
6. Add substrate to the incubation. The substrate should be at an initial concentration of 1 μM. The volume of substrate required in the remaining 1.162.5 ml incubation is calculated as follows: […]
8. Pre-incubate the tube containing the incubation mix, also positive control and no cofactor tubes in the thermostatically controlled shaking water bath set at 37° C. for approx 5 min.
9. Add NADP to initiate reaction (75 μl to each 1.162.5 ml incubation mix, 12.5 μl to positive control tube and 5 μl to no substrate tube) and take first time point immediately. The PNA positive control, no cofactor control and no substrate tubes are incubated for the total incubation time.
10. Remove 100 μl aliquots up to 9 different sampling points from 0 to 60 min (usually 0, 3, 5, 10, 15, 20, 30, 45 & 60 min) and terminate reaction. Longer incubation times can be used, but, after 120 min the microsomes deteriorate. The reaction may be terminated by addition of organic solvent, acid or base. At the end of the incubation process the no cofactor and no substrate controls in a similar manner i.e. terminate with the same reagent.
11. Analyse samples (including no cofactor and no substrate control) by a specific assay for the substrate to determine the disappearance kinetics.
Data obtained using the procedure described above can be quantified in terms of the substrates in vitro intrinsic clearance (Clint). Providing that the substrate concentration is below Km, the metabolism should be 1st order giving a log-linear plot of substrate disappearance with time.
The gradient of this line is the first order rate constant (k) for the substrate disappearance and is determined by regression analysis. This rate constant can be converted to the half-life according to the following equation.
Alternatively the rate constant can be converted to an intrinsic clearance (Clint) according to the following equation:— Clint(μl/min/mg)=(k/protein concentration in incubation (mg/ml))*1000

[2] = target: T1, MC3 receptor (MC3R) (Homo sapiens, UniProt P41968); assay: Nle4, D-Phe7-α-MSH inhibition at the MC3 receptor (competition binding, SPA, CHO-CRE MC3R membranes)
T1 construct: expressed in transfected cells; host or cells: CHO-CRE MC3R cells (membranes)
T1 sequence (P41968 whole entry): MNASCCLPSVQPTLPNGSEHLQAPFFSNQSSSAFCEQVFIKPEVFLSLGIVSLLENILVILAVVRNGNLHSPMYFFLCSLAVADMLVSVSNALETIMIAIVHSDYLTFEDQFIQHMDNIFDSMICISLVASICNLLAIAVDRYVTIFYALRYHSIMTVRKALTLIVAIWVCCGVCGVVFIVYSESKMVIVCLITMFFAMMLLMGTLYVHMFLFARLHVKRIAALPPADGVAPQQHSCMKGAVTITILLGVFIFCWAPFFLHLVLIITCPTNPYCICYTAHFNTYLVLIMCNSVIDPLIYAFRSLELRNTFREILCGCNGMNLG
Description: Nle4, D-Phe7-α-MSH Inhibition at the MC3 Receptor
(§1) Nle4, D-Phe7-α-MSH is a stable analogue of melanocyte-stimulating hormone (MSH), which is an agonist at the MC3 receptor (MC3R). Compounds can be evaluated for their ability to inhibit Nle4, D-Phe7-α-MSH binding to membranes from cells expressing the MC3R using a competition binding assay versus [^125I] Nle4, D-Phe7-α-MSH.
(§2) Cells expressing the MC3R were subject to homogenisation and the membrane fragment isolated by differential centrifugation. CHO-CRE MC3R cell membranes were coupled to PVT-PEI-WGA SPA Beads type A for 2 hours, spun at 1000 RPM for 5 mins and suspended to a final assay concentration of 800 ug bead/ml (1.2 ug membrane, 40 ug bead per well). Bead/membrane mix was incubated with 0.06 nM [^125I] Nle4, D-Phe7-α-MSH and 11 half-log concentrations of competitor ligand, in duplicate, in a total volume of 50 μl buffer per well (25 mM HEPES, 1 mM MgCl2, 2.5 mM CaCl2, 1% Pluronic F68, 1 complete EDTA protease inhibitor tablet/50 ml pH7). Non-specific binding was determined by the inclusion of 100 nM SHU9119. The reaction was initiated by the addition of bead/membranes and plates were incubated at room temperature for 12 hours (the first hour on a plate shaker), after which the amount of radioactivity present was determined using a Wallac plate counter. Ki values were determined by data analysis using appropriate software.

[3] = target: T2, CYP3A4 (Homo sapiens, UniProt P08684); assay: High density DDI 3 μM cocktail screen in human liver microsomes, midazolam probe; assay type: in vitro ADME; details: human, liver microsomes, probe midazolam, read-out: % inhibition 3A4 @ 3 μM
T2 construct: utilizes human liver microsomes together with isoform-specific clinical drug probes; from tissue; host or cells: human liver microsomes
T2 sequence (P08684 whole entry, canonical isoform): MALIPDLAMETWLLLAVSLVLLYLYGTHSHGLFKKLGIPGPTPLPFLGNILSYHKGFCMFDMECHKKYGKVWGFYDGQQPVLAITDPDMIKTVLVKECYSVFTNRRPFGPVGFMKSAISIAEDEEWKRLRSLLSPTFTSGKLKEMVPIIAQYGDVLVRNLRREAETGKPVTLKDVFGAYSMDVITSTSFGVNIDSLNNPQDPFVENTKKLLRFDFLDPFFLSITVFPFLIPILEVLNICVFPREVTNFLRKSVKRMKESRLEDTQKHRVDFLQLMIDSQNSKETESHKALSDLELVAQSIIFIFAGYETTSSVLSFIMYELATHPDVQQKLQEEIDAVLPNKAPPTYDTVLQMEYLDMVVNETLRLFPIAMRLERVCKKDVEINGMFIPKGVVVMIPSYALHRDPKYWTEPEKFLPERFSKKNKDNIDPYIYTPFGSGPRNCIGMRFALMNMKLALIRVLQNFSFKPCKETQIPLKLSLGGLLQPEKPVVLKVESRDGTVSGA
Procedure: High Density Drug-Drug Interactions (DDI) 3 μM Cocktail Screen
A drug interaction is a situation in which a substance affects the activity of another drug, i.e. the effects are increased or decreased, or together they produce a new effect that neither produces on its own. Drug interactions may be the result of various processes but a relatively common one is where one drug affects the pharmacokinetics of another by inhibiting the cytochrome P450 that metabolises it. Because of the importance of these phenomena, assessment of the DDI potential for new chemical entities (NCEs) is considered important early on in the drug discovery process.
The DDI cocktail screen in human liver microsomes (HLM) is run in a fully automated fashion and the aim of the screen is to provide a single-point assessment of the DDI potential of new chemical entity (NCE; tested at […]) against the 4 primary cytochrome P450 enzymes, 1A2, 2D6, 2C9 and 3A4.
The substrate cocktail approach for P450 DDI utilizes human liver microsomes together with isoform-specific clinical drug probes and permits the simultaneous measurement of the inhibition of P450 1A2, 2C9, 2D6 & 3A4 activities in a single incubation. This is run in high throughput with simultaneous detection of metabolites by LC-MS/MS. This method has been thoroughly tested and evaluated using standard compounds.
Appearance of the metabolite of each substrate is measured over time in the presence and absence of the NCE (test compound/inhibitor) at a concentration of 3 μM. The compounds are assessed for their inhibitory potential as a percentage value and interpreted using the following scheme.

[4] = target: T3, MC4 receptor (MC4R) (Homo sapiens, UniProt P32245); assay: Nle4, D-Phe7-α-MSH inhibition at the MC4 receptor (competition binding, SPA, CHO-CRE MC4R membranes)
T3 construct: expressed in transfected cells; host or cells: CHO-CRE MC4R cells (membranes)
T3 sequence (P32245 whole entry): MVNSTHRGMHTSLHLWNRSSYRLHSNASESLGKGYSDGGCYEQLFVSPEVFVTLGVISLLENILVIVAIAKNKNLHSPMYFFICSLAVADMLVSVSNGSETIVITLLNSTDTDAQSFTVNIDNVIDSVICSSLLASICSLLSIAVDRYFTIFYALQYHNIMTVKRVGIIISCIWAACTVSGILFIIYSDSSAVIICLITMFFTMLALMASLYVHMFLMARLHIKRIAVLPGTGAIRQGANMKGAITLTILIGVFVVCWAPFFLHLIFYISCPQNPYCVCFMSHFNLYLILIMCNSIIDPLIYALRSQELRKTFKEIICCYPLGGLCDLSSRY
Description: Nle4, D-Phe7-α-MSH Inhibition at the MC4 Receptor
as §1, with “MC4” for “MC3”, “(MC4R).” for “(MC3R).”, “MC4R” for “MC3R”
as §2, with “MC4R” for “MC3R”, “min” for “mins”, “a” for “a final assay”, “300” for “800”, “(0.15” for “(1.2”, “15” for “40”

[5] = target: MC4 receptor (Homo sapiens, UniProt P32245); assay: MC4 EC50 functional potency (protocol E of US2005/0176772 / WO 2005/077935); assay type: cell-based
Sequence of MC4 receptor (P32245 whole entry): as above
Procedure: The compounds of formula (I) of the present invention have utility as MCR4 agonists in the treatment of various disease states.
MC5 and MC4 EC50 activity was determined as described by assay protocols D and E, respectively, in US2005/0176772 (pages 28-30).

Structure (SMILES)	microsomal CLint at 1 μM [1]	Ki [2]	inhibition at 3 µM [3]	Ki [4]	EC50 [5]
COC(=O)N1CCN(C(=O)[C@@H]2CN(C(=O)OC(C)(C)C)C[C@H]2c2ccc(F)cc2F)CCCC1c1ccccc1 (mixture of isomers) [Example 97]	247 µL/min/mg	3720 nM	63%	1620 nM	157 nM
Cn1nc(N2C[C@@H](C(=O)N3CCCC(c4ccc(Cl)cc4)N(S(C)(=O)=O)CC3)[C@H](c3ccc(F)cc3F)C2)ccc1=O (mixture of isomers) [Example 81]	18 µL/min/mg	1750 nM	32%	122 nM	20 nM
COC(=O)N1CCN(C(=O)[C@@H]2CN(c3ccc(C#N)nn3)C[C@H]2c2ccc(F)cc2F)CCCC1c1ccc(OC)cc1 (mixture of isomers) [Example 48]	55 µL/min/mg	2660 nM	61.5%	585 nM	85.5 nM
CCCC(=O)N1CCN(C(=O)[C@@H]2CN(C(C)(C)C)C[C@H]2c2ccc(F)cc2F)CCCC1c1ccccc1 (mixture of isomers) [Example 104, 1-{[(3S,4R)-1-tert-butyl-4-(2,4-difluorophenyl)pyrrolidin-3-yl]carbonyl}-4-butyryl-5-phenyl-1,4-diazocane]	69.2 µL/min/mg	9080 nM	48%	583 nM	18 nM
COc1ccc([C@@H]2CN(c3ccc(=O)[nH]n3)C[C@H]2C(=O)N2CCCC(c3ccc(Cl)cc3)N(S(C)(=O)=O)CC2)c(F)c1 (mixture of isomers) [Example 111, 6-[(3S,4R)-3-{[5-(4-chlorophenyl)-4-(methylsulfonyl)-1,4-diazocan-1-yl]carbonyl}-4-(2-fluoro-4-methoxyphenyl)pyrrolidin-1-yl]pyridazin-3(2H)-one]	24 µL/min/mg	942 nM	66.5%	68.4 nM	14.7 nM
CC(C)(C)N1C[C@@H](C(=O)N2CCC[C@@H](c3ccc(Cl)cc3)N(C(=O)CC(F)(F)F)CC2)[C@H](c2ccc(F)cc2F)C1 [Example 12]	17 µL/min/mg	4150 nM	34%	807 nM	32.8 nM
CS(=O)(=O)N1CCN(C(=O)[C@@H]2CN(c3ccc(C#N)nn3)C[C@H]2c2ccc(C#N)cc2)CCCC1c1ccc(Cl)cc1 (mixture of isomers) [Example 87]	–	2150 nM	50%	927 nM	168 nM
COC(=O)N1CCN(C(=O)[C@@H]2CN(c3ccc(=O)n(C)n3)C[C@H]2c2ccc(F)cc2F)CCCC1c1ccc(Cl)cc1 (mixture of isomers) [Example 80]	19 µL/min/mg	627 nM	70.5%	49.8 nM	5.41 nM
COC(=O)N1CCN(C(=O)[C@@H]2CN(c3ccc(C#N)nn3)C[C@H]2c2ccc(F)cc2F)CCCC1c1cccc(OC)c1 (mixture of isomers) [Example 50]	266 µL/min/mg	1610 nM	76.5%	379 nM	74 nM
COC(=O)N1CCN(C(=O)[C@@H]2CN(c3ccc(=O)[nH]n3)C[C@H]2c2ccc(OC)cc2F)CCCC1c1ccc(Cl)cc1 (mixture of isomers) [Example 112, methyl 8-(4-chlorophenyl)-4-{[(3S,4R)-4-(2-fluoro-4-methoxyphenyl)-1-(6-oxo-1,6-dihydropyridazin-3-yl)pyrrolidin-3-yl]carbonyl}-1,4-diazocane-1-carboxylate]	15 µL/min/mg	404 nM	65.5%	17.4 nM	3.38 nM
COc1ccc([C@@H]2CN(C(C)(C)C)C[C@H]2C(=O)N2CCC[C@@H](c3ccc(Cl)cc3)N(C(=O)C3CC(F)(F)C3)CC2)c(F)c1 [Example 62]	–	–	0%	3660 nM	18.4 nM
CC1(C(=O)N2CCN(C(=O)[C@@H]3CN(C(C)(C)C)C[C@H]3c3ccc(F)cc3F)CCC[C@H]2c2ccc(Cl)cc2)CC1 [Example 60, 1-{[(3S,4R)-1-tert-butyl-4-(2,4-difluorophenyl)pyrrolidin-3-yl]carbonyl}-5S-(4-chlorophenyl)-4-(1-methylcyclopropylcarbonyl)-1,4-diazocane]	31.1 µL/min/mg	–	44.9%	90.9 nM	4.81 nM
